Data published in ChEMBL document CHEMBL1201862, “PubChem BioAssay data set” (2004).
Active and inactive are the calls of the source.

Assays:
[1] = molecular target: T1, Endoribonuclease toxin MazF (Escherichia coli K-12, UniProt P0AE70); assay: fluorescent RNA oligo signal without MazF, dose response, counter-screen for MazEF activator project, biochemical, fluorescence, single-stranded RNase substrate (AID 588502); assay type: functional
T1 sequence (P0AE70 whole entry): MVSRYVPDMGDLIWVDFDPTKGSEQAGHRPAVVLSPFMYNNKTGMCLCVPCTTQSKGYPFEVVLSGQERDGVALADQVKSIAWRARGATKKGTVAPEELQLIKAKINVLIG

[2] = molecular target: T2, Runt-related transcription factor 1/Core-binding factor subunit beta (Homo sapiens, UniProt Q01196+Q13951); assay: inhibitors of RUNX1 Runt–CBFb-SMMHC binding, biochemical, TR-FRET (AID 1438); assay type: protein assay
T2 sequence (Q01196 whole entry): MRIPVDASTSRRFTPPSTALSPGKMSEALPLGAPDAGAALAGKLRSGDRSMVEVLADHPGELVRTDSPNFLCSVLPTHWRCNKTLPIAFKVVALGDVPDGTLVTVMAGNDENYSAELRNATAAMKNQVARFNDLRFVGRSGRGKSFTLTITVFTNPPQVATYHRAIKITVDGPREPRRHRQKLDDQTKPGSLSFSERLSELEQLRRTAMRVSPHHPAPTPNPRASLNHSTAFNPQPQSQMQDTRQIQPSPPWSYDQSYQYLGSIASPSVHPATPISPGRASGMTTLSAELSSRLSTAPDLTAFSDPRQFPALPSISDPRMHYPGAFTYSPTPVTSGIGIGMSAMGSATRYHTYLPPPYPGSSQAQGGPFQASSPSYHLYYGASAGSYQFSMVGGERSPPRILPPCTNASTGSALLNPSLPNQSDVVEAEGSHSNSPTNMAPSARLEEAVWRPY
T2 sequence (Q13951 whole entry): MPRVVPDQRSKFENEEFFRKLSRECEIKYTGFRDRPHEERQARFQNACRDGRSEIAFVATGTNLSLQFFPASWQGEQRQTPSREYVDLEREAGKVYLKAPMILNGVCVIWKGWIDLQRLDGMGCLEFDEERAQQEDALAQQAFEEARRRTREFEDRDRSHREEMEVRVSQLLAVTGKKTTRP

[3] = molecular target: T1, Endoribonuclease toxin MazF; assay: MazF toxin RNase activators, dose response, biochemical, fluorescence, single-stranded RNA substrate, uHTS hits (AID 588481); assay type: functional
[4] = molecular target: T2, Runt-related transcription factor 1/Core-binding factor subunit beta; assay: inhibitors of RUNX1 Runt–CBFb-SMMHC binding, primary screen, biochemical, FRET, Cerulean-Runt, Venus-CBFb-SMMHC, uHTS (AID 1434); assay type: protein assay;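 further: partner is the CBFb-SMMHC leukemia fusion protein rather than wild-type CBFb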
[5] = molecular target: Potassium voltage-gated channel subfamily KQT member 2 (Rattus norvegicus, UniProt O88943); assay: retigabine-insensitive KCNQ2 potentiators, concentration-response, dose response, cell-based, retigabine-insensitive compounds (AID 2654); assay type: functional
Potassium voltage-gated channel subfamily KQT member 2, sequence (O88943 whole entry): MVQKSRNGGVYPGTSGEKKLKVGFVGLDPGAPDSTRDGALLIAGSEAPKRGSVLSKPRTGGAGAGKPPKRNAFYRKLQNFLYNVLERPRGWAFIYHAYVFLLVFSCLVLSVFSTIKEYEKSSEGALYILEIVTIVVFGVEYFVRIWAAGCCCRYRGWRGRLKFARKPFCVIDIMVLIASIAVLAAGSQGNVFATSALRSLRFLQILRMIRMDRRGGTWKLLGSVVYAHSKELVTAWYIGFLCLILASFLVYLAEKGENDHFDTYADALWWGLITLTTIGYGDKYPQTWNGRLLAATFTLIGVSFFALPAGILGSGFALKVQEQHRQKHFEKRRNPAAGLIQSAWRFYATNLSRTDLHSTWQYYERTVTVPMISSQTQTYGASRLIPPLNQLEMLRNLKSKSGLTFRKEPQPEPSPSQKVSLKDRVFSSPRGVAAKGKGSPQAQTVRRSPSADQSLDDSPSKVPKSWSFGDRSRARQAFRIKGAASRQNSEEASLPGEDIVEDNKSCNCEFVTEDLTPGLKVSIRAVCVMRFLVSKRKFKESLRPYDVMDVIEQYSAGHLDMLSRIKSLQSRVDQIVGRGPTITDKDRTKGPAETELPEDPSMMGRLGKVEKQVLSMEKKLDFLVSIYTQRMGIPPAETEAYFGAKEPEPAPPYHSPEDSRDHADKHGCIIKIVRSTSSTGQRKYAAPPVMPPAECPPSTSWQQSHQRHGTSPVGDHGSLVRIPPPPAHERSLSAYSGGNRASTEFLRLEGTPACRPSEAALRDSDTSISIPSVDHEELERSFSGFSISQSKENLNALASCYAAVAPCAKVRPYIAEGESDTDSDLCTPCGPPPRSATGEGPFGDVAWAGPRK

[6] = cytotoxicity in HEK-293T cells, dose response, cytotoxicity control for BCR NF-kB inhibitor project, luminescence, B-cell screen hits (AID 489021); assay type: functional, cell-based;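 further: HEK-293T cells carrying an NF-kB luciferase reporter; cells exposed to compound for about 14 hours before viability readout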
[7] = molecular target: Eukaryotic translation initiation factor 4E (Mus musculus, UniProt P63073); assay: eIF4E–eIF4G protein interaction inhibitors, dose response, biochemical, TR-FRET (AID 855); assay type: functional;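 further: potency for disrupting eIF4E binding to eIF4GI seen as loss of FRET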
Eukaryotic translation initiation factor 4E, sequence (P63073 whole entry): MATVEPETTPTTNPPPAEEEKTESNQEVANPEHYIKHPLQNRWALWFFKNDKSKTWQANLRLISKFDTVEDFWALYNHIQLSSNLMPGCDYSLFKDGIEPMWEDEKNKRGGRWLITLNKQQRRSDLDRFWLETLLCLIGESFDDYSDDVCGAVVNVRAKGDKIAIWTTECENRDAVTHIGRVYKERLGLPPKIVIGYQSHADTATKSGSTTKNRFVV

[8] = molecular target: T3, Voltage-gated N-type calcium channel alpha-1B subunit/Amyloid beta A4 precursor protein-binding family A member 1 (Homo sapiens, UniProt Q00975+Q02410); assay type: protein assay
[9] = molecular target: T3, Voltage-gated N-type calcium channel alpha-1B subunit/Amyloid beta A4 precursor protein-binding family A member 1; assay type: protein assay; remark: listed apart in the source
Hexokinase HKDC1 = molecular target: T4, Hexokinase HKDC1 (Homo sapiens, UniProt Q2TB90); assay: HKDC1 hexokinase inhibitors, dose response, biochemical, W721R variant (AID 504729); assay type: functional
T4 sequence (Q2TB90 whole entry): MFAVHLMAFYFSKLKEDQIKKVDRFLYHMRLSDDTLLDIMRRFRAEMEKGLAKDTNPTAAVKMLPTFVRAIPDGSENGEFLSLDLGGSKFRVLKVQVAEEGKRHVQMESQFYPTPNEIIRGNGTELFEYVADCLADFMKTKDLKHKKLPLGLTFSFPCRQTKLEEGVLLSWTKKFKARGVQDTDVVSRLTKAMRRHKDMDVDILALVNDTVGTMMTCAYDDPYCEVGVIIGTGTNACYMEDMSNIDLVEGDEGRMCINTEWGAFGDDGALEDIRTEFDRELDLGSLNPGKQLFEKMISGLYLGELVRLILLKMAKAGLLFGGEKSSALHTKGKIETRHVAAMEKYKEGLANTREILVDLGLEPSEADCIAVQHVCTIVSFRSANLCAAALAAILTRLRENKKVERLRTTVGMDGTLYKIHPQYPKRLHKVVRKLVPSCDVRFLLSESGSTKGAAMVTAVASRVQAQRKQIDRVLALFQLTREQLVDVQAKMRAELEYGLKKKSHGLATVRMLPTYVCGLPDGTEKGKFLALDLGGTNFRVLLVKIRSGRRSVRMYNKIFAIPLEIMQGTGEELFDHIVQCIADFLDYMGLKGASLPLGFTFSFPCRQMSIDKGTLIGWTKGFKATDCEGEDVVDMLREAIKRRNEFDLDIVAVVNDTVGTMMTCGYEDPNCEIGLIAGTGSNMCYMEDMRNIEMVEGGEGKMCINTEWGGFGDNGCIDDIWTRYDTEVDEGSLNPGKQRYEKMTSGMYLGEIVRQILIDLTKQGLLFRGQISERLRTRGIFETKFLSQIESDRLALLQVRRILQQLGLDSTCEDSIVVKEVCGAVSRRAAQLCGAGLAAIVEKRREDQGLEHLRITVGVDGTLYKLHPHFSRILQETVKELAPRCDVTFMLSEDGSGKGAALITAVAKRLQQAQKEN

HeLa = assay: HeLa cell cytotoxicity, dose response, cytotoxicity control for MITF activator project, CellTiter-Glo luminescence, cherry-pick samples (AID 540259); assay type: functional, cell-based; conditions: Homo sapiens
[10] = molecular target: T5, Heat shock factor protein 1 (Mus musculus, UniProt P38532); assay: inhibition of MG132-induced HSE-luciferase signal, confirmation, cell-based, NIH3T3, luminescence, dose retest (AID 2382); assay type: functional;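 further: NIH3T3 fibroblasts with HSF1-driven luciferase reporter stressed by proteasome inhibitor MG132; luminescence from HSF1-driven luciferase expression after 8 hours of MG132 stress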
T5 sequence (P38532 whole entry): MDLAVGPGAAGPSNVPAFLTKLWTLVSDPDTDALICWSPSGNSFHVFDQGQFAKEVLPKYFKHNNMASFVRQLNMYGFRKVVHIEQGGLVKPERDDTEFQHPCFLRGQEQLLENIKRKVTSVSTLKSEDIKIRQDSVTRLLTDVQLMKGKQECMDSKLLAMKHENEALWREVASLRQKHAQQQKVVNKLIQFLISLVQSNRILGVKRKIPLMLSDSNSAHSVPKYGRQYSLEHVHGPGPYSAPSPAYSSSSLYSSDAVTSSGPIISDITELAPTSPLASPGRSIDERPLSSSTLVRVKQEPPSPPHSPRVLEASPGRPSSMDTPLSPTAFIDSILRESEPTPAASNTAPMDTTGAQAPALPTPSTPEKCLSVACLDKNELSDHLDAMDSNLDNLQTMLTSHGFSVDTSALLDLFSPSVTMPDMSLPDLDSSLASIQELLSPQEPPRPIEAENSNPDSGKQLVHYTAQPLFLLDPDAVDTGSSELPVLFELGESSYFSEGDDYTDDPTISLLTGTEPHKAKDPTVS

[11] = molecular target: Dual specificity tyrosine-phosphorylation-regulated kinase 1A (Rattus norvegicus, UniProt Q63470); assay type: biochemical, Homo sapiens
Large T antigen = Large T antigen (Simian virus 40, UniProt P03070); assay type: functional, Betapolyomavirus macacae;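 further: Confirmatory-stage PubChem screen for compounds that inhibit SV40 T antigen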
Large T antigen, sequence (P03070 whole entry): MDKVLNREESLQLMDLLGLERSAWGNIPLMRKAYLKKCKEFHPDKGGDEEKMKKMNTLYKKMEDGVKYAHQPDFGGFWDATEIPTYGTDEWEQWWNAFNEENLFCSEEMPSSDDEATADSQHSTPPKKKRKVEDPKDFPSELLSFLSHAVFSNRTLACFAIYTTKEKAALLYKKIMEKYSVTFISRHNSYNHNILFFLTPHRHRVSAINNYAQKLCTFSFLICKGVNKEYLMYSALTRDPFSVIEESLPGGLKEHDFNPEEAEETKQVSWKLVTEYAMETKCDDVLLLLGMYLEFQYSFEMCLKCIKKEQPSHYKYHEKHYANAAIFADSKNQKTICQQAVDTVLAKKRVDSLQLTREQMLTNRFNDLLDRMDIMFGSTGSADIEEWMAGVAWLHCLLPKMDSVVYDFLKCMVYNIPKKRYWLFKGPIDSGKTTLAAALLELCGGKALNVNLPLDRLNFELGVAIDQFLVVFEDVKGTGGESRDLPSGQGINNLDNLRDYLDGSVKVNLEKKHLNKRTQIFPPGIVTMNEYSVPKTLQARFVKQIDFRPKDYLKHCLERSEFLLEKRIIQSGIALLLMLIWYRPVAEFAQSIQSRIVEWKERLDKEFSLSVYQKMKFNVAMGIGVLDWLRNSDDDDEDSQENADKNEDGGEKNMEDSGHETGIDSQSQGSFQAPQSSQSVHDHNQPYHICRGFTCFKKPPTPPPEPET

[12] = molecular target: T6, Polyadenylate-binding protein 1 (Homo sapiens, UniProt P11940); assay: PABP1 MLLE–PAM2 binding inhibitor potency, dose response, biochemical, fluorescence polarization, FITC-PAM2 peptide (AID 602259); assay type: functional; conditions: read-out: IC50_Mean
T6 sequence (P11940 whole entry): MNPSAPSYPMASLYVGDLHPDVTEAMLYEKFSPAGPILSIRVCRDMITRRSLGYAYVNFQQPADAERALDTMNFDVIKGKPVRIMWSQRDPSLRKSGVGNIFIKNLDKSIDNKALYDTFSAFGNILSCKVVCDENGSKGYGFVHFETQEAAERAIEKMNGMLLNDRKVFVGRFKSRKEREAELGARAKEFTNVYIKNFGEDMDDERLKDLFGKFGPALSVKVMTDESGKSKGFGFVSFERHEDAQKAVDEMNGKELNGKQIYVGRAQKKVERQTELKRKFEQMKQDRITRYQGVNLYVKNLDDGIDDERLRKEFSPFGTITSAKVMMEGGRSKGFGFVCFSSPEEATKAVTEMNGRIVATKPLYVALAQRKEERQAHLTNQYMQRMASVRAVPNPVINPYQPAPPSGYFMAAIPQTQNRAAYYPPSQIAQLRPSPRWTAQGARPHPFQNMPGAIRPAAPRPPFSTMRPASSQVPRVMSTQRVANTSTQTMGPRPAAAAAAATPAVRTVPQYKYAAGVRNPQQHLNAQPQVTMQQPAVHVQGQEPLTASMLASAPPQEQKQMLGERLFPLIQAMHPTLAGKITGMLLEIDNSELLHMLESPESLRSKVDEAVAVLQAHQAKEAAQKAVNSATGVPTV

[13] = molecular target: T7, Rac GTPase-activating protein 1 (Homo sapiens, UniProt Q9H0H5); assay: MgcRacGAP GTPase-activating activity inhibitors, confirmation, biochemical, ADP Hunter fluorescence, primary and confirmatory (AID 624330); assay type: functional
T7 sequence (Q9H0H5 whole entry): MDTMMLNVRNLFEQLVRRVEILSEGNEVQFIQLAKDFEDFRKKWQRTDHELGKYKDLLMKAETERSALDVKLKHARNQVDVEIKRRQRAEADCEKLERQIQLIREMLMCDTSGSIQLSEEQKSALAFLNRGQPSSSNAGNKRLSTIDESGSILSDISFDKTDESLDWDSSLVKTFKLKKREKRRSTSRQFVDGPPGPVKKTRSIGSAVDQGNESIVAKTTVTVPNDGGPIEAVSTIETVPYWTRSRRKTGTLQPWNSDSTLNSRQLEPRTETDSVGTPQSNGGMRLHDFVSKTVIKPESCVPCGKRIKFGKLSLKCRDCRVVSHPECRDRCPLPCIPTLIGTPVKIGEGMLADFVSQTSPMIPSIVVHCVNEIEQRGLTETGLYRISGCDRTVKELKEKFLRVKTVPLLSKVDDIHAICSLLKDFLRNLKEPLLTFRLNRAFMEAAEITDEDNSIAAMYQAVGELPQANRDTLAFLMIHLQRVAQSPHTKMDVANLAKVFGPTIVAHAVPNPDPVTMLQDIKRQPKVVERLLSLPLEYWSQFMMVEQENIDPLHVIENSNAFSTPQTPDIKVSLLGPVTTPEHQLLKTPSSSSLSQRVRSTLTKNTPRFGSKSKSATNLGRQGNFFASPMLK

[14] = molecular target: T6, Polyadenylate-binding protein 1; assay: PABP1 MLLE–PAM2 interaction inhibitors, dose response, miRNA deadenylation inhibitor project, biochemical, fluorescence polarization, Cy5-PAM2 peptide, secondary (AID 602260); assay type: functional; conditions: read-out: IC50_Mean
Cytochrome P450 2D6 = Cytochrome P450 2D6 (Homo sapiens, UniProt P10635);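 further: CYP2D6 member of a cytochrome P450 panel assay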
Cytochrome P450 2D6, sequence (P10635 whole entry, the tested form may be a part): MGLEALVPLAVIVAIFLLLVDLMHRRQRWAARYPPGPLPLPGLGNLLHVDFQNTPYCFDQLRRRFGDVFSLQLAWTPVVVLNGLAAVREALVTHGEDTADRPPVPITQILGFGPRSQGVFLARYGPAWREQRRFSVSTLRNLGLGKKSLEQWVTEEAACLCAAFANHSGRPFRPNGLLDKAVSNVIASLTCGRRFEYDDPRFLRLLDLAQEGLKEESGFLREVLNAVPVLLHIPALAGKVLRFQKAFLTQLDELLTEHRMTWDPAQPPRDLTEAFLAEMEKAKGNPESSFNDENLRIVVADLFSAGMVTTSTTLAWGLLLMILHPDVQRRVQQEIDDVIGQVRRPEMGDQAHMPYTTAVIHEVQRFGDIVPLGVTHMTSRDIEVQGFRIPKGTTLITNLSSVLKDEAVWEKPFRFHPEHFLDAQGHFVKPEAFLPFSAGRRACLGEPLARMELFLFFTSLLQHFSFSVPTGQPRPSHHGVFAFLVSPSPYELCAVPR

[15] = molecular target: T8, Carboxy-terminal domain RNA polymerase II polypeptide A small phosphatase 1 (Homo sapiens, UniProt Q9GZU7); assay: inhibitors of CTDSP1, concentration-response testing, biochemical assay, absorbance-based, actives from ultra-high-throughput screening (AID 540297); assay type: functional
T8 sequence (Q9GZU7 whole entry): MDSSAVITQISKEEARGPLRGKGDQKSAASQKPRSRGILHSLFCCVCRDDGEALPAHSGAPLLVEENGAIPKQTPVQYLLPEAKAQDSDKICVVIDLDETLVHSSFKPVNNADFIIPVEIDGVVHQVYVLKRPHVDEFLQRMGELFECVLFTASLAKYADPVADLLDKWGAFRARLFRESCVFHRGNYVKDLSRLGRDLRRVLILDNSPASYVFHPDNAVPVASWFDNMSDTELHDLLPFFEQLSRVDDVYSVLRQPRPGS

Trypsin = Trypsin (Sus scrofa, UniProt P00761); assay: porcine trypsin inhibitors, dose response, selectivity assay for Rce1 protease inhibitor project, biochemical, quenched peptide fluorescence, cherry-pick (AID 488789)
Trypsin, sequence (P00761 whole entry): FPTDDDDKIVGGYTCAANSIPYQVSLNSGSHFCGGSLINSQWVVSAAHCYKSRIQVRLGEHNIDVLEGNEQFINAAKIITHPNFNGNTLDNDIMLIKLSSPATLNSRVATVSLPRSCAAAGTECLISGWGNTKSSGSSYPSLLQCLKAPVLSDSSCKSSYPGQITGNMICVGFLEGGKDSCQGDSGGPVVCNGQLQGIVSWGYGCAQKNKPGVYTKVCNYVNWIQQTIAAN

[16] = molecular target: T9, Corticotropin-releasing factor receptor 2/Corticotropin-releasing factor-binding protein (Homo sapiens, UniProt P24387+Q13324); assay: activators of CRF receptor 2 with binding protein – uHTS hits, confirmation (AID 602473); assay type: functional; conditions: read-out: EC50_Mean
T9 sequence (Q13324 whole entry): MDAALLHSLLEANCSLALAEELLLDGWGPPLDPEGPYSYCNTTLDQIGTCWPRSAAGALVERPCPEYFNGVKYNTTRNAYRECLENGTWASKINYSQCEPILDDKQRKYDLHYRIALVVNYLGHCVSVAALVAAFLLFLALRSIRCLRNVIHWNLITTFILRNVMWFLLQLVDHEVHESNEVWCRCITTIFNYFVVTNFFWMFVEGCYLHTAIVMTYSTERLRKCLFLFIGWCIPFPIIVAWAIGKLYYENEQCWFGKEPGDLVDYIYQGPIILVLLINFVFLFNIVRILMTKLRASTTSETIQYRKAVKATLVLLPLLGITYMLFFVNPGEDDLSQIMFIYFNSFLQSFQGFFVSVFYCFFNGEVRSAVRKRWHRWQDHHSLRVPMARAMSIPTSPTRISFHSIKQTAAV
T9 sequence (P24387 whole entry): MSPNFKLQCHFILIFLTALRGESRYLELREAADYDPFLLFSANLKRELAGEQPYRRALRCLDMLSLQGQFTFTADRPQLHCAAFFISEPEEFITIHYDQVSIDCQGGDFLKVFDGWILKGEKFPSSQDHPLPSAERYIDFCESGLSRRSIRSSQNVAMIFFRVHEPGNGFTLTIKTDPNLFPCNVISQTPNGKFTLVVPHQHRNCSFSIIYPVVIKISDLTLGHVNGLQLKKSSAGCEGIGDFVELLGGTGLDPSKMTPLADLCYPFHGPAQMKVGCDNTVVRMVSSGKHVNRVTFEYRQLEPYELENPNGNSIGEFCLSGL

[17] = molecular target: T9, Corticotropin-releasing factor receptor 2/Corticotropin-releasing factor-binding protein; assay: Dose Response confirmation of uHTS hits for small molecule antagonists of the CRF-binding protein and CRF-R2 receptor complex.; assay type: functional; conditions: read-out: IC50_Mean

COc1ccc2nc(N3CCCC3)c(C#N)cc2c1
EC50 [1]: > 99 µM (inactive)
IC50 [2]: > 100 µM (inactive)
EC50 [3]: > 99 µM (inactive)
IC50 [4]: 2.04 µM (active)

O=C(Nc1cccnc1)Nc1ccc(F)c(Cl)c1
EC50 [5]: 4.21 µM (active)

O=C(NNC(=O)C12CC3CC(CC(C3)C1)C2)c1cccc(O)c1
IC50 [6]: > 80 µM (inactive)

CCSc1ccc2nnc(-c3cccc(F)c3)n2n1
IC50 [7]: > 64 µM (inactive)

O=C(CCN1C(=O)/C(=C/c2ccccc2Cl)SC1=S)NC1C=CS(=O)(=O)C1 (stereo not drawn)
IC50 [8]: 5.41 µM (active)
IC50 [9]: > 50 µM (inactive)

COC1=CC(=O)C(OC)=C(OC)C1=O
IC50 (Hexokinase HKDC1): 2.56 µM (active)

N#Cc1ccc(C(=O)NC2CCCCCCC2)cc1
AC50 (HeLa): 55 µM (active)

O=C(Nc1ccc(F)nc1)Nc1cccc(F)c1
EC50 [5]: 5.76 µM (active)

Cc1ccc(/C=C2\SC(=S)N(CCCC(=O)Nc3cccnc3)C2=O)cc1
IC50 [6]: > 80 µM (inactive)
EC50 [10]: 0.255 µM (active)

O=C1NC(=O)/C(=C/c2ccc(O)cc2)S1
AC50 [11]: 0.414 µM (active)
IC50 (Large T antigen): 10.1 µM (active)

COc1ccc(C(=O)Nc2nnc(SCC(=O)Nc3ccc(NC(C)=O)cc3)s2)c(OC)c1
IC50 [6]: > 80 µM (inactive)

N#Cc1c(-c2ccncc2)c2c([nH]c1=O)-c1ccccc1OC2
IC50 [2]: > 100 µM (inactive)
IC50 [4]: 1.04 µM (active)

Cc1ccc(NC(=O)C2C3/C=C\CCCCC32)cc1 (stereo not drawn)
AC50 (HeLa): 197 µM (active)

COc1cccc(Nc2ccc(N3CCCCC3)cc2)c1OC
AC50 (HeLa): 252 µM (active)
IC50 [12]: 21.4 µM (inactive)
IC50 [13]: 9.65 µM (active)
IC50 [14]: > 66 µM (inactive)

CC(C)(C)c1[nH]nc2c1C(c1ccc(OC(=O)c3ccco3)cc1)C(C#N)=C(N)O2 (stereo not drawn)
IC50 [7]: > 64 µM (inactive)
AC50 (Cytochrome P450 2D6): 15.8 µM (inconclusive)

CN(Cc1ccccc1)C(=O)COC(=O)/C=C/c1ccco1
IC50 [15]: 12.5 µM (active)
IC50 [7]: 50 µM (inactive)

COc1ccc(OC)c2nc(O)c(CCNC(=O)c3cc4ccccc4o3)cc12
IC50 (Hexokinase HKDC1): 20.4 µM (inactive)

O=C(NC1CC1)c1ccc2c(c1)N(Cc1ccccc1)CCS2
AC50 (Trypsin): 6.54 µM (active)

CCCCc1ccc(NC(=S)Nc2cccnc2)cc1
EC50 [16]: > 53 µM (inactive)
EC50 [5]: 268 µM (active)
IC50 [17]: > 47.1 µM (inactive)
